Measurements as given in patent publication US20210369155A1, “Analyte Sensors and Sensing Methods for Detecting Inhibitors of Diaphorase” (Abbott Diabetes Care Inc., priority 2020, published 2021).

Assays:
[1] = tested on: Diaphorase; test: Inhibition of diaphorase by dicoumarol: NADH and dicoumarol titrated into PBS exposed to diaphorase-coated carbon working electrodes; type: biochemical
Method: Example 1: Inhibition of Diaphorase by Dicoumarol. For this example, the spotting formulations shown in Table 1 below were coated onto separate carbon working electrodes. A micro-syringe was use to deposit 35 nL of each formulation as a single spot having an area of around 0.2 mm^2 upon separate carbon working electrodes. Following deposition, the working electrodes were cured overnight at 25° C.
The electrodes were exposed to fresh phosphate buffered saline (PBS) solutions, and varying amounts of NADH and dicoumarol were then titrated into the buffered solutions. No glucose or GDH was added to “power” the sensors and complete the enzyme system specified above (FIG. 3B). […] To the buffered solution containing 30 μM NADH was then titrated dicoumarol up to a concentration of 100 μM. […] FIG. 10 is a graph showing the results of titrating NADH and dicoumarol (DCM) into PBS solutions exposed to the analyte sensors of Example 1 (Sensors 1-4). […] A higher signal resulted for Sensor 2 as a result of its higher concentration of diaphorase. Given the goal of making the sensor response to be diaphorase limited, further optimization work centered around optimizing the sensor response at a low-concentration loading of the diaphorase. […]

[2] = tested on: Diaphorase; test: Detection of dicoumarol with sensors whose active area holds glucose dehydrogenase, NAD and rate-limiting diaphorase: glucose and dicoumarol titrated into PBS; type: biochemical; details: Sensors 5-8; PBS with 500 μM NAD, glucose up to 50 μM; DCM titrated up to 160 μM
Method: Example 2: Detection of Dicoumarol Using an Analyte Sensor Having an Active Area with Glucose Dehydrogenase and a Rate-Limited Electron Transfer to the Working Electrode. For this example, the spotting formulations shown in Table 2 below were coated onto separate carbon working electrodes. A micro-syringe was use to deposit 35 nL of each formulation as a single spot having an area of around 0.2 mm^2 upon separate carbon working electrodes. Following deposition, the working electrodes were cured overnight at 25° C.
Glucose and dicoumarol were then titrated to PBS solutions in which the sensors were immersed. A 500 μM quantity of NAD was first added to the buffer solution, followed by three additions of glucose up to 50 μM. Thereafter, dicoumarol (DCM) was titrated up to 160 μM. FIGS. 14A and 14B are graphs showing the results of titrating glucose and dicoumarol (DCM) into PBS solutions exposed to electrodes having variable amounts of NAD-dependent glucose dehydrogenase in an active area thereon. […] As shown, increasing amounts of glucose dehydrogenase increased the signal response during glucose addition and during DCM addition.

With O=c1oc2ccccc2c(O)c1Cc1c(O)c2ccccc2oc1=O [dicoumarol] the “normalized sensor response as a function of dicoumarol concentration (FIGS. 11A, 11B, 13)” value ([1]; 0.2 mg/mL diaphorase, 0.4 mg/mL electron transfer agent, NADH titrated up to 160 μM) was “strong inhibition”, the “sensor signal as the dicoumarol concentration increased (FIG. 10)” value ([1]; only Sensors 2 and 4 (0.4 mg/mL Formula 1 polymer), PBS with 30 μM NADH, dicoumarol titrated up to 100 μM, no glucose or GDH) was “sudden and sensitive decrease in signal” and the “sensor current response during DCM addition (FIGS. 14A, 14B)” value [2] was “response decreased as increasing amounts of DCM were added”.
